From paper PMC6848382, “Characterization of the Bioactivity and Mechanism of Bactenecin Derivatives Against Food-Pathogens” (Frontiers in Microbiology, 2019)
In brackets after ≈: the same amount, converted by molar mass. Like-named read-outs stand apart in the source and are kept apart here. Residues, ends and D or L forms follow the SMILES beside them. No end group written: not given here.

What was measured:
Escherichia coli UB1005 = type: cell-based
Description: (§1) The antimicrobial activity of each peptide against food-pathogens was characterized by the minimum inhibitory concentration (MIC) ([Ma et al., 2013]). A logarithmic growth-phase culture of bacteria (1 × 10^6 CFU/mL) was mixed with peptide solutions (final concentration ranging from 0 μM to 256 μM) in 96-well plates. After the 96-well plates were incubated for 24 h at 37°C, optical dispersion (OD) was measured using a microplate reader (Bio-Rad, ıHercules, CA, United States) at 630 nm. […] The broth with bacteria cells was used as the negative control, and un-inoculated broth was used as a positive control. The tests were performed in triplicate using three replicates for each experiment.

Bacillus cereus CMCC6303 = type: cell-based
Description: as §1

[1] = tested on: 12 typical food-pathogens; settings: over the 12 food-pathogens of Table 3
Description: as §1
The selectivity index (SI), calculated as the ratio of MHC to GM, was used a comparison parameter for the safety and efficacy of peptides.

[2] = tested on: Listeria monocytogenes CMCC54004; type: cell-based
Description: as §1

[3] = tested on: Salmonella typhimurium ATCC14028; type: cell-based
Description: as §1

[4] = tested on: Escherichia coli ATCC25922; type: cell-based; settings: ATCC25922, 24 h
Description: as §1

[5] = tested on: Salmonella typhimurium C77-31; type: cell-based
Description: as §1

[6] = tested on: Salmonella pullorum C79-13; type: cell-based; settings: 24 h
Description: as §1

[7] = tested on: Escherichia coli ATCC25922; type: cell-based; settings: for MIC, CaCl2 / MIC, Control / MIC, KCl / MIC, MgCl2 / MIC, NH4Cl / MIC, NaCl: ATCC25922, 24 h
Description: To evaluate the effect of different physiological conditions on the stability of peptides, we determined the salt stability, thermal stability, and enzymatic stability as described in a previous study ([Dong, 2013]; [Sun et al., 2018]). Escherichia coli ATCC25922 grown in the logarithmic phase (1 × 10^6 CFU/mL) was exposed to each peptide at different salt concentrations (150 mM NaCl, 4.5 mM KCl, 6 μM NH4Cl, 1 mM MgCl2, 8 μM ZnCl2, 2 mM CaCl2, and 4 μM FeCl3). The peptides were treated for 1 h at 100°C to test for thermal stability. The peptides were treated with trypsin, pepsin, papain and protease k at a concentration of 1 mg/mL for 1 h at 37°C to test for enzyme stability. The control group consisted of untreated peptides. The subsequent assay was consistent with the MIC assay.

EA. hy 926 cells = test: Cytotoxicity (CCK-8); type: cell-based, human; settings: CCK-8, 24 h; for EA. hy 926 cell viability: peptide concentration 128 μM
Description: The cytotoxicity of the peptides was tested on the EA. hy 926 cell line by using the Cell Counting Kit-8 (CCK-8, Dojindo, Japan) as described in a previous study ([Sánchez-Gómez et al., 2015]). The EA. Hy 926 cells cultured in the logarithmic growth -phase was then diluted with PBS to a single cell suspension. A 100 μL cell suspension (2 × 10^5 cells) was added to 96-well plates and cultured in an incubator with a 5% CO2 atmosphere at 37°C. The cell culture medium was removed, and the two-fold serial dilutions of peptides prepared using DMEM with 5% FBS were added to the 96-well plates. After 24 h, 100 μL DMEM with 10% CCK-8 was added to the 96-well plates and then cultured for 4 h. The absorbance was measured at 492 nm by using a microplate reader. DMEM served as a positive control and cells mixed with DMEM without peptides as a negative control. Melittin was employed as a control peptide.

[8] = tested on: Staphylococcus aureus CMCC26074; type: cell-based
Description: as §1

[9] = tested on: Cronobacter sakazakii ATCC29544; type: cell-based
Description: as §1

[10] = tested on: Staphylococcus aureus ATCC25923; type: cell-based
Description: as §1

[11] = tested on: Salmonella enteric-subspenterica CMCC50071; settings: 1 × 10^6 CFU/mL, 24 h, 37°C, triplicate
Description: as §1

[12] = tested on: Salmonella enteric-subspenterica CMCC47020; settings: 1 × 10^6 CFU/mL, 24 h, 37°C, triplicate
Description: as §1

[13] = E. coli ATCC25922, peptides treated with trypsin 1 mg/mL, 1 h, 37°C
[14] = Staphylococcus aureus CMCC26074, 1 × 10^6 CFU/mL, 24 h, 37°C, triplicate
[15] = Staphylococcus aureus ATCC25923, 1 × 10^6 CFU/mL, 24 h, 37°C, triplicate

Compound | MIC (Escherichia coli UB1005; UB1005, 24 h) [µM] | GM (geometric mean of MICs) [1] [µM] | MIC [4] [µM] | MIC ([5]; murium C77-31, 24 h) [µM] | MIC [6] [µM] | MIC, Heat ([7]; ATCC25922, 1 h) [µM] | MIC, Papain ([7]; ATCC25922, 1 h) [µM] | MIC, Pepsin ([7]; ATCC25922, 1 h) [µM] | MIC, Proteinase k ([7]; ATCC25922, 1 h) [µM] | MIC, CaCl2 [7] [µM] | MIC, Control [7] [µM] | MIC, KCl [7] [µM] | MIC, MgCl2 [7] [µM] | MIC, NH4Cl [7] [µM] | MIC, NaCl [7] [µM] | EA. hy 926 cell viability (EA. hy 926 cells) [%] | MIC ([9]; ATCC29544, 24 h) [µM] | MIC (Bacillus cereus CMCC6303; CMCC6303, 24 h) [µM] | MIC ([2]; CMCC54004, 24 h) [µM] | MIC ([3]; ATCC14028, 24 h) [µM] | other results
RWKRIVVIRKRR-NH2 [W2K3K10R11] | 256 | 170.0 | 4 | 256 | 256 | 16 | 4 | 16 | 8 | 4 | 4 | 4 | 4 | 4 | 8 | 83 | 256 |  |  |  | MIC (Bacillus cereus CMCC6303; Bacillus cereus CMCC6303, 1 × 10^6 CFU/mL, 24 h, 37°C, triplicate): 128 µM; MIC ([2]; Listeria monocytogenes CMCC54004, 1 × 10^6 CFU/mL, 24 h, 37°C, triplicate): 128 µM; MIC ([3]; Salmonella typhimurium ATCC14028, 1 × 10^6 CFU/mL, 24 h, 37°C, triplicate): 128 µM; MIC, Trypsin [7, 13]: >256 µM; MIC [8, 14]: >256 µM; MIC [10, 15]: >256 µM
RWRRIVVIRVRR-NH2 [W2R3V10R11] | 16 | 24.0 | 2 | 32 | 32 | 4 | 2 | 32 | 8 | 8 | 2 | 2 | 4 | 2 | 4 | 80 | 16 | 64 | 2 | 32 | MIC [11]: 8 µM; MIC, Trypsin ([7]; ATCC25922, 1 h): >256 µM; MIC [12]: 128 µM; MIC ([8]; CMCC26074, 24 h): 64 µM; MIC ([10]; ATCC25923, 24 h): 256 µM
RKWRIVVIRVRR-NH2 [K2W3V10R11] | 8 | 19.0 | 2 | 32 | 8 | 8 | 2 | 128 | 256 | 8 | 2 | 2 | 4 | 2 | 8 | 80 | 32 | 16 | 2 | 32 | MIC [11]: 8 µM; MIC, Trypsin ([7]; ATCC25922, 1 h): >256 µM; MIC [12]: 64 µM; MIC ([8]; CMCC26074, 24 h): 256 µM; MIC ([10]; ATCC25923, 24 h): 128 µM
RRFRIVVIRWLR-NH2 [R2F3W10L11] | 16 | 32.0 | 2 | 64 | 32 | 32 | 8 | 16 | 128 | 8 | 2 | 8 | 2 | 4 | 16 | 71 | 32 | 32 | 16 | 32 | MIC [11]: 8 µM; MIC, Trypsin ([7]; ATCC25922, 1 h): >256 µM; MIC [12]: 64 µM; MIC ([8]; CMCC26074, 24 h): 256 µM; MIC ([10]; ATCC25923, 24 h): 256 µM
RKRRIVVIRRKR-NH2 [K2R3R10K11] |  | 191.8 | 8 |  |  | 16 | 8 | 32 | 8 | 16 | 8 | 8 | 8 | 8 | 32 | 85 |  | 128 | 32 | 128 | MIC (Escherichia coli UB1005; Escherichia coli UB1005, 1 × 10^6 CFU/mL, 24 h, 37°C, triplicate): 256 µM; MIC ([5]; Salmonella typhimurium C77-31, 1 × 10^6 CFU/mL, 24 h, 37°C, triplicate): >256 µM; MIC ([6]; Salmonella pullorum C79-13, 1 × 10^6 CFU/mL, 37°C, triplicate): 256 µM; MIC, Trypsin [7, 13]: >256 µM; MIC [8, 14]: >256 µM; MIC ([9]; Cronobacter sakazakii ATCC29544, 1 × 10^6 CFU/mL, 24 h, 37°C, triplicate): >256 µM; MIC [10, 15]: >256 µM
melittin [reference compound] |  |  |  |  |  |  |  |  |  |  |  |  |  |  |  |  |  |  |  |  | Cytotoxicity (EA. hy 926 cells; at 16 μM): 100%
RRWRIVVIRWRR-NH2 [R2W3W10R11] | 16 | 30.2 | 2 | 64 | 32 | 8 | 4 | 32 | 128 | 2 | 2 | 2 | 2 | 2 | 4 | 77 | 64 | 64 | 1 | 64 | MIC [11]: 8 µM; MIC, Trypsin [7, 13]: >256 µM; MIC [12]: 256 µM; MIC ([8]; CMCC26074, 24 h): 128 µM; MIC ([10]; ATCC25923, 24 h): 128 µM
CC[C@H](C)[C@@H]1NC(=O)[C@H](CCCNC(=N)N)NC(=O)[C@@H](NC(=O)[C@H](CC(C)C)NC(=O)[C@@H](N)CCCNC(=N)N)CSSC[C@@H](C(=O)N[C@@H](CCCNC(=N)N)C(N)=O)NC(=O)[C@H](C(C)C)NC(=O)[C@H](CCCNC(=N)N)NC(=O)[C@H]([C@@H](C)CC)NC(=O)[C@H](C(C)C)NC(=O)[C@H](C(C)C)NC1=O [L2C3V10C11, bactenecin] (HELM PEPTIDE1{R.L.C.R.I.V.V.I.R.V.C.R.[am]}$PEPTIDE1,PEPTIDE1,3:R3-11:R3$$$V2.0) |  |  | 4 (≈ 5.93 µg/mL) | >256 | >256 | 8 (≈ 11.9 µg/mL) | 16 (≈ 23.7 µg/mL) | 16 (≈ 23.7 µg/mL) | 32 (≈ 47.5 µg/mL) | 8 (≈ 11.9 µg/mL) | 4 (≈ 5.93 µg/mL) | 4 (≈ 5.93 µg/mL) | 4 (≈ 5.93 µg/mL) | 4 (≈ 5.93 µg/mL) | 16 (≈ 23.7 µg/mL) |  | 256 (≈ 380 µg/mL) | 64 (≈ 94.9 µg/mL) |  |  | MIC, Trypsin ([7]; ATCC25922, 1 h): 64 µM (≈ 94.9 µg/mL); MIC ([8]; CMCC26074, 24 h): >256 µM; MIC ([10]; ATCC25923, 24 h): >256 µM
